Measurements reported in the Kinase Knowledgebase extract (Sharma et al. 2016).

Key:
[1] = target: MAPK14 (UniProt Q16539); assay: CSBP Binding Inhibition
[2] = target: MAPK14 (UniProt Q16539); assay: CSBP Kinase Inhibition

Sequence of MAPK14 (Q16539 whole entry, looked up): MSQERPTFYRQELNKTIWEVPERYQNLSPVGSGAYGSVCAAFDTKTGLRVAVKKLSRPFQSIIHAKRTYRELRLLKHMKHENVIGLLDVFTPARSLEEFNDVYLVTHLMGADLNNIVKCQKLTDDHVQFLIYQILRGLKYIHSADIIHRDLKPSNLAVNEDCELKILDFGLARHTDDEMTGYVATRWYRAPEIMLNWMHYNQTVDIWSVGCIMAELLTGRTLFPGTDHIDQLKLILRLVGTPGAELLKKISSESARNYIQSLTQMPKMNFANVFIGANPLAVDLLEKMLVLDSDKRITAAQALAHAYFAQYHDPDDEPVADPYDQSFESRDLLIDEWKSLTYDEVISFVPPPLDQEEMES

Row | IC50 [1] [µM] | IC50 [2] [µM] | Compound
1 | < 50 | – | O=C1CCC(n2cnc(-c3ccc(F)cc3)c2-c2ccnc(O)n2)CC1
2 | – | < 50 | COc1nccc(-c2c(-c3ccc(F)cc3)ncn2[C@H]2CC[C@@](C)(O)CC2)n1
3 | – | < 50 | Oc1nccc(-c2c(-c3ccc(F)cc3)ncn2C2CCC(O)CC2)n1 (stereo not given)
4 | – | < 50 | COc1nccc(-c2c(-c3ccc(F)cc3)ncn2[C@H]2CC[C@](C)(O)CC2)n1
5 | < 50 | – | CC(C)Oc1nccc(-c2c(-c3ccc(F)cc3)ncn2C2CCC(O)CC2)n1 (stereo not given)
6 | – | < 50 | COc1nccc(-c2c(-c3ccc(F)cc3)ncn2[C@H]2CC[C@H](OC3CCCCO3)CC2)n1 (stereo not given in full)
7 | – | < 50 | COc1nccc(-c2c(-c3ccc(F)cc3)ncn2[C@H]2CC[C@@H](N)CC2)n1
8 | – | < 50 | CCCC(=O)O[C@H]1CC[C@H](n2cnc(-c3ccc(F)cc3)c2-c2ccnc(OC)n2)CC1
9 | < 50 | – | CC(C)Oc1nccc(-c2c(-c3ccc(F)cc3)ncn2C2CCC(=O)CC2)n1
10 | < 50 | – | COc1nccc(-c2c(-c3ccc(F)cc3)ncn2C2CCC(=O)CC2)n1
11 | < 50 | – | CSc1nccc(-c2c(-c3ccc(F)cc3)ncn2[C@H]2CC[C@H](O)CC2)n1
12 | – | < 50 | COc1nccc(-c2c(-c3ccc(F)cc3)ncn2[C@H]2CC[C@H](N)CC2)n1
13 | – | < 50 | COc1nccc(-c2c(-c3ccc(F)cc3)ncn2[C@H]2CC[C@@](O)(CO)CC2)n1.COc1nccc(-c2c(-c3ccc(F)cc3)ncn2[C@H]2CC[C@](O)(CO)CC2)n1
14 | < 50 | – | CSc1nccc(-c2c(-c3ccc(F)cc3)ncn2C2CCC(=O)CC2)n1
15 | < 50 | – | COc1nccc(-c2c(-c3ccc(F)cc3)ncn2[C@H]2CC[C@@](C)(O)CC2)n1.COc1nccc(-c2c(-c3ccc(F)cc3)ncn2[C@H]2CC[C@](C)(O)CC2)n1
